# Measured values published in PubChem BioAssay (NCI).
#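 Protocol summary: plate cells (96-well), add compound at 5 concentrations, incubate 48 h, interpolate endpoints linearly. At the GI50, growth is halved. TGI marks complete inhibition of growth.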
# Test system: A549 NSCLC
# Assay: DTP human tumour cell line panel, 48 h
row,SMILES,TGI [µM]
1,CC(O)(C(=O)N(O)c1ccc(Cl)cc1)c1ccc(Cl)cc1 (stereo unspecified),> 100
2,CCOP(=O)(OCC)c1cc(-c2ccccc2)ccc1N,> 100
3,CC1(C)[C@@H]2C[C@H]1c1cnc(-c3ccccn3)cc1[C@H]2C(O)[C@@H]1c2cc(-c3ccccn3)ncc2[C@H]2C[C@@H]1C2(C)C (stereo partly specified),18.3
4,CC1(C)OC(CCO)CN1C(=O)OCc1ccccc1 (stereo unspecified),> 100
5,COc1cc2c(cc1OCCCOc1cc3c(cc1OC)C(=O)N1CCC[C@H]1CN3)N=C[C@@H]1CCCN1C2=O,> 28.1
6,CCOC(=O)C1=C(C)NC(=O)N([N+](=O)[O-])C1c1ccccc1C(F)(F)F (stereo unspecified),> 100
7,O=c1c(Cc2ccccc2)c(-c2ccccc2)[nH]n1C1=NCCN1,> 100
8,Brc1ccc2c(c1)-c1nc3c(cc1CC2)CCc1ccc(Br)cc1-3,> 100
9,CN1c2ccccc2C(=O)NC12CCN(CC1COc3ccccc3O1)CC2 (stereo unspecified),> 100
10,Cc1cn(C2CC(OC(c3ccccc3)(c3ccccc3)c3ccccc3)C(COC(c3ccccc3)(c3ccccc3)c3ccccc3)O2)c(=O)[nH]c1=O (stereo unspecified),> 100
11,CCOC(=O)C(NC(=O)c1ccc(N=NN(C)C)cc1)C(C)C (stereo unspecified),> 100
12,COc1cc(CCCOC2OC(COC3OCC(O)C(O)C3O)C(O)C(O)C2O)cc2cc(-c3ccc4c(c3)OCO4)oc12 (stereo unspecified),> 175
13,CCOC(=O)c1ccc(C(=O)/C(C(=O)OC(C)(C)C)=C2\CCCN2C)n1C,> 100
14,O=CN(O)CC(=O)O,> 100
15,CCOC(=O)c1c(NC(=S)Nc2ccc(C)cc2)sc2c1CCN(C)C2,> 100
16,c1ccc([P+](Cc2csnn2)(c2ccccc2)c2ccccc2)cc1,> 100
17,NC(=S)N=Nc1c(O)cc(Nc2ccc(Cl)cc2Cl)c2ccccc12,> 100
18,CCC1(CC)C(=O)NC(=S)N=C1N,> 100
19,CCCC[C@@H]1CCN2C[C@@H](O)[C@@H](O)[C@H]2[C@@H]1O,> 100
20,O=C(NN1C(=O)CSC1c1ccc(Cl)c(Cl)c1)c1ccncc1 (stereo unspecified),> 100
21,CNc1ccc2c(c1)Cc1ccccc1-2,56.2
22,CCOC(=O)c1csc(NC(=O)CCCC#N)n1,> 100
23,O=c1cc(-c2ccccc2F)[nH]c2cc3c(cc12)OCO3,> 100
24,CCOC(=O)C(C)NC(=O)N(C)C12CC3CC(CC(C3)C1)C2 (stereo unspecified),> 500
25,O=c1c2cc3c(=O)n(CCc4ccccc4CO)c(=O)c3cc2c(=O)n1CCc1ccccc1CO,> 100
26,COC(=O)c1sc2ncc3c(c2c1N)CC(C)CC3 (stereo unspecified),> 100
27,CCc1cc(=O)n(/C(C)=C/c2ccccc2)n1C,> 100
28,CC1=CCC[C@H]2[C@](C)(CC3=CC(=O)C4SCCSC4C3=O)[C@@H](C)CC[C@]12C (stereo partly specified),38.3
29,COC(=O)C1=C(C(=O)OC)C2(C)CCC(=O)C1O2 (stereo unspecified),> 10
30,N/C(CSCCSC/C(N)=N/O)=N\O,> 100

# Test system: SK-OV-3 ovarian
# Assay: DTP human tumour cell line panel, 48 h
SMILES,TGI [µM],GI50 [µM]
CC(O)(C(=O)N(O)c1ccc(Cl)cc1)c1ccc(Cl)cc1 (stereo unspecified),97.5,
CCOP(=O)(OCC)c1cc(-c2ccccc2)ccc1N,> 100,
CC1(C)[C@@H]2C[C@H]1c1cnc(-c3ccccn3)cc1[C@H]2C(O)[C@@H]1c2cc(-c3ccccn3)ncc2[C@H]2C[C@@H]1C2(C)C (stereo partly specified),14.8,
CC1(C)OC(CCO)CN1C(=O)OCc1ccccc1 (stereo unspecified),> 100,
COc1cc2c(cc1OCCCOc1cc3c(cc1OC)C(=O)N1CCC[C@H]1CN3)N=C[C@@H]1CCCN1C2=O,> 100,
CCOC(=O)C1=C(C)NC(=O)N([N+](=O)[O-])C1c1ccccc1C(F)(F)F (stereo unspecified),> 100,
O=c1c(Cc2ccccc2)c(-c2ccccc2)[nH]n1C1=NCCN1,> 100,
Brc1ccc2c(c1)-c1nc3c(cc1CC2)CCc1ccc(Br)cc1-3,> 100,
OC(c1ccco1)C(F)(F)c1nc2ccccc2o1 (stereo unspecified),> 100,
CN1c2ccccc2C(=O)NC12CCN(CC1COc3ccccc3O1)CC2 (stereo unspecified),> 100,
Cc1cn(C2CC(OC(c3ccccc3)(c3ccccc3)c3ccccc3)C(COC(c3ccccc3)(c3ccccc3)c3ccccc3)O2)c(=O)[nH]c1=O (stereo unspecified),> 100,
CCOC(=O)C(NC(=O)c1ccc(N=NN(C)C)cc1)C(C)C (stereo unspecified),> 100,
COc1cc(CCCOC2OC(COC3OCC(O)C(O)C3O)C(O)C(O)C2O)cc2cc(-c3ccc4c(c3)OCO4)oc12 (stereo unspecified),> 175,
CCOC(=O)c1ccc(C(=O)/C(C(=O)OC(C)(C)C)=C2\CCCN2C)n1C,95.1,
O=C1c2c(c3c4ccc(Br)cc4oc3c3[nH]c4ccccc4c23)C(=O)N1O,> 100,2.84
O=CN(O)CC(=O)O,> 100,

SMILES,TGI [µM],GI50 [µM]
C(=N/Nc1ccc(-c2nc3ccccc3[nH]2)cc1)/c1c(-c2ccccc2)[nH]c2ccccc12,20.5,
c1ccc([P+](Cc2csnn2)(c2ccccc2)c2ccccc2)cc1,> 100,
c1ccc(-c2ccc(N=NN3CCCC3)cc2)cc1,> 100,
NNC(=O)c1cccc2c1Oc1ccccc1S2,> 100,
NC(=S)N=Nc1c(O)cc(Nc2ccc(Cl)cc2Cl)c2ccccc12,61.5,
CCC1(CC)C(=O)NC(=S)N=C1N,> 100,
CCCC[C@@H]1CCN2C[C@@H](O)[C@@H](O)[C@H]2[C@@H]1O,> 100,
O=C(NN1C(=O)CSC1c1ccc(Cl)c(Cl)c1)c1ccncc1 (stereo unspecified),> 100,
CCOC(=O)c1csc(NC(=O)CCCC#N)n1,> 100,
O=c1cc(-c2ccccc2F)[nH]c2cc3c(cc12)OCO3,14.2,
CCOC(=O)C(C)NC(=O)N(C)C12CC3CC(CC(C3)C1)C2 (stereo unspecified),493,
O=c1c2cc3c(=O)n(CCc4ccccc4CO)c(=O)c3cc2c(=O)n1CCc1ccccc1CO,> 100,
COC(=O)c1sc2ncc3c(c2c1N)CC(C)CC3 (stereo unspecified),> 100,
CCc1cc(=O)n(/C(C)=C/c2ccccc2)n1C,> 100,
COC(=O)C1=C(C(=O)OC)C2(C)CCC(=O)C1O2 (stereo unspecified),> 10,
N/C(CSCCSC/C(N)=N/O)=N\O,> 100,

# Test system: OVCAR-5 ovarian
# Assay: DTP human tumour cell line panel, 48 h
row,SMILES,TGI [µM]
1,CC(O)(C(=O)N(O)c1ccc(Cl)cc1)c1ccc(Cl)cc1 (stereo unspecified),> 100
2,CCOP(=O)(OCC)c1cc(-c2ccccc2)ccc1N,> 100
3,CC1(C)[C@@H]2C[C@H]1c1cnc(-c3ccccn3)cc1[C@H]2C(O)[C@@H]1c2cc(-c3ccccn3)ncc2[C@H]2C[C@@H]1C2(C)C (stereo partly specified),18
4,CC1(C)OC(CCO)CN1C(=O)OCc1ccccc1 (stereo unspecified),> 100
5,COc1cc2c(cc1OCCCOc1cc3c(cc1OC)C(=O)N1CCC[C@H]1CN3)N=C[C@@H]1CCCN1C2=O,1.32
6,CCOC(=O)C1=C(C)NC(=O)N([N+](=O)[O-])C1c1ccccc1C(F)(F)F (stereo unspecified),> 100
7,O=c1c(Cc2ccccc2)c(-c2ccccc2)[nH]n1C1=NCCN1,> 100
8,Brc1ccc2c(c1)-c1nc3c(cc1CC2)CCc1ccc(Br)cc1-3,> 100
9,CN1c2ccccc2C(=O)NC12CCN(CC1COc3ccccc3O1)CC2 (stereo unspecified),> 100
10,Cc1cn(C2CC(OC(c3ccccc3)(c3ccccc3)c3ccccc3)C(COC(c3ccccc3)(c3ccccc3)c3ccccc3)O2)c(=O)[nH]c1=O (stereo unspecified),> 100
11,CCOC(=O)C(NC(=O)c1ccc(N=NN(C)C)cc1)C(C)C (stereo unspecified),> 100
12,COc1cc(CCCOC2OC(COC3OCC(O)C(O)C3O)C(O)C(O)C2O)cc2cc(-c3ccc4c(c3)OCO4)oc12 (stereo unspecified),> 175
13,CCOC(=O)c1ccc(C(=O)/C(C(=O)OC(C)(C)C)=C2\CCCN2C)n1C,> 100
